Measurements as given in patent publication US20130225591A1, “IMIDOTHIAZOLE KINASE INHIBITORS” (priority 2009, published 2013).

molecular target: T1, CDK5-p25 kinase (Homo sapiens, UniProt Q00535); assay: CDK5-p25 kinase enzymatic assay; assay type: biochemical; settings: 50 nM-99 nM; 5 uM ATP, 0.3 nM CDK5-p25; read-out: IC50 potency, CDK5-p25 kinase enzymatic assay, 50 nM-99 nM
T1 construct: purchased Invitrogen PV4677
Description: CDK5-p25 kinase (Invitrogen PV4677) enzymatic activity was measured using electrophoretic separation and fluorescent detection to monitor phosphorylation of a fluorescently labeled histone H1-derived peptide substrate, FL29 (5-FAM-GGGPATPKKAKKL-CONH2, Caliper #760429)
First, 0.25 uL of serially diluted compound in DMSO at 100× concentration was transferred into each well of a 384-well polystyrene assay plate. To this was added 15 uL of a 1.67× enzyme solution (500 pM enzyme, 1 mM DTT (Sigma D9779), 1× reconstitution buffer with protease inhibitor (Caliper #700329 proprietary formulation)), followed by centrifugation for 1 min at 1000 rpm, and incubation for 5-15 min at room temperature to allow binding of compound to enzyme. To initiate the reaction, 10 uL of substrate/ATP mix (245 mM Hepes pH 7.5, 0.003% Brij 35, 0.004% Tween, 12.75 uM ATP, 3.75 uM FL29 peptide) were added to each well, followed by centrifugation at 1000 rpm for 1 min. The reaction was then incubated at room temperature for 30 min. Final assay conditions were: 0.3 nM CDK5-p25, 1.5 uM peptide, 5 uM ATP, 0.6 mM DTT, 1% DMSO, 98 mM HEPES pH 7.5.
After incubation, reactions were quenched by the addition of 45 uL Caliper termination solution (Caliper proprietary formula), followed by centrifugation at 1000 rpm for 1 min. Extent of reaction (percentage conversion of substrate to phosphorylated product) was then measured using the Caliper EZ II reader. Dose-response curves were created by plotting the inhibition of enzyme activity (normalized relative to vehicle treated and no ATP control reactions) as a function of the log of compound concentration. The curve was analyzed using a four parameter logistical fit to calculate IC50 values.

T1 sequence (Q00535 whole entry): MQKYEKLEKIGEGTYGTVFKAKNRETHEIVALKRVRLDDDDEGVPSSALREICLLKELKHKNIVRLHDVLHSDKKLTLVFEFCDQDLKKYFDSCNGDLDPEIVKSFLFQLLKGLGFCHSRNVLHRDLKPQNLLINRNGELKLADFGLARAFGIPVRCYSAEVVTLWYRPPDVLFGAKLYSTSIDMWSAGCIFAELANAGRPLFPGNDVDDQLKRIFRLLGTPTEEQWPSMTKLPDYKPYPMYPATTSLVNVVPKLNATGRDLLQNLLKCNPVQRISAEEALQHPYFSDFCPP
T1 sequence (Q15078 99-307 partner limits assumed): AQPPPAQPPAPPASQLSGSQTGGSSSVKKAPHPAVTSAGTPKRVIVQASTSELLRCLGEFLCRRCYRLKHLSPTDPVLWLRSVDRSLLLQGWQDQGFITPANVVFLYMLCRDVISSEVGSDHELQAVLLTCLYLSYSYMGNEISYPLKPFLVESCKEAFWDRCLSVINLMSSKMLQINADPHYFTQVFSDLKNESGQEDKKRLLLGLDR

SMILES	IC50
O=C(Nc1ncn2c(C(F)(F)F)csc12)C(Cl)c1ccc2ccccc2c1 (single isomer, unassigned) [Example 45, (R or S)-2-chloro-2-(2-naphthyl)-N-[3-(trifluoromethyl)imidazo[5,1-b][1,3]thiazol-7-yl]acetamide]	50 to 99 nM
O=C(Cc1ccc2ccccc2c1)Nc1ncn2c(C(F)F)csc12 [Example 41, N-[3-(difluoromethyl)imidazo[5,1-b][1,3]thiazol-7-yl]-2-(2-naphthyl) acetamide]	50 to 99 nM
O=C(Nc1ncn2c(C(F)(F)F)csc12)C(Cl)c1ccc2ccccc2c1 (stereo not shown) [Example 42, 2-chloro-2-(2-naphthyl)-N-[3-(trifluoromethyl)imidazo[5,1-b][1,3]thiazol-7-yl]acetamide]	50 to 99 nM
O=C(Cc1ccc(-c2ccncc2)cc1)Nc1ncn2c(C(F)(F)F)csc12 [Example 12, 2-(4-pyridin-4-ylphenyl)-N-[3-(trifluoromethyl)imidazo[5,1-b][1,3]thiazol-7-yl]acetamide]	50 to 99 nM
CN(C)c1ccc(CC(=O)Nc2ncn3c(C(F)(F)F)csc23)cc1 [Example 31, 2-[4-(dimethylamino)phenyl]-N-[3-(trifluoromethyl)imidazo[5,1-b][1,3]thiazol-7-yl]acetamide]	50 to 99 nM
O=C(Cc1ccc2c(c1)OCO2)Nc1ncn2c(C(F)(F)F)csc12 [Example 30, 2-(1,3-benzodioxol-5-yl)-N-[3-(trifluoromethyl)imidazo[5,1-b][1,3]thiazol-7-yl]acetamide]	50 to 99 nM
Nc1ccccc1-c1ccc(CC(=O)Nc2ncn3c(C(F)(F)F)csc23)cn1 [Example 63, 2-[6-(2-aminophenyl)pyridin-3-yl]-N-[3-(trifluoromethyl)imidazo[5,1-b][1,3]thiazol-7-yl]acetamide]	50 to 99 nM

same assay, conditions: 500 nM-3 μM; 5 uM ATP, 0.3 nM CDK5-p25; read-out: IC50 potency, CDK5-p25 kinase enzymatic assay, 500 nM-3 μM

SMILES	IC50
C[C@@H](C(=O)Nc1ncn2c(C(F)(F)F)csc12)c1ccc2ncccc2c1 [Example 47, (2R)-2-quinolin-6-yl-N-[3-(trifluoromethyl)imidazo[5,1-b][1,3]thiazol-7-yl]propanamide]	500 to 3000 nM
NC(C(=O)Nc1ncn2c(C(F)(F)F)csc12)c1ccc2ccccc2c1 (stereo not shown) [Example 15, 2-amino-2-(2-naphthyl)-N-[3-(trifluoromethyl)imidazo[5,1-b][1,3]thiazol-7-yl]acetamide]	500 to 3000 nM
N#Cc1csc2c(NC(=O)Cc3ccc4ccccc4c3)ncn12 [Example 84, N-(3-cyanoimidazo[5,1-b][1,3]thiazol-7-yl)-2-(naphthalen-2-yl)acetamide]	500 to 3000 nM
O=C(Cc1ccc2ccccc2c1)Nc1ncn2c(C3CC3)csc12 [Example 38, N-(3-cyclopropyl-imidazo[5,1-b][1,3]thiazol-7-yl)-2-(2-naphthyl) acetamide]	500 to 3000 nM
O=C(Cc1cc2ccccc2cn1)Nc1ncn2c(C(F)(F)F)csc12 [Example 8, 2-isoquinolin-3-yl-N-[3-(trifluoromethyl)imidazo[5,1-b][1,3]thiazol-7-yl]acetamide]	500 to 3000 nM
Cc1csc2c(NC(=O)Cc3ccc4ccccc4c3)ncn12 [Example 65, N-(3-methylimidazo [5,1-b][1,3]thiazol-7-yl)-2-(2-naphthyl) acetamide]	500 to 3000 nM
COc1ccc2cc(C(C)C(=O)Nc3ncn4c(C(F)(F)F)csc34)ccc2c1 (stereo not shown) [Example 18, 2-(6-methoxy-2-naphthyl)-N-[3-(trifluoromethyl)imidazo[5,1-b][1,3]thiazol-7-yl]propanamide]	500 to 3000 nM

same assay, conditions: 5 uM ATP, 0.3 nM CDK5-p25; read-out: IC50 potency, CDK5-p25 kinase enzymatic assay, 100 nM-499 nM

SMILES	IC50
CC(C(=O)Nc1ncn2c(C(F)(F)F)csc12)c1ccc2ccccc2c1 (stereo not shown) [Example 34, 2-(2-naphthyl)-N-[3-(trifluoromethyl)imidazo[5,1-b][1,3]thiazol-7-yl]propanamide]	100 to 499 nM
O=C(Cc1cncnc1)Nc1ncn2c(C(F)(F)F)csc12 [Example 32, 2-pyrimidin-5-yl-N-[3-(trifluoromethyl)imidazo[5,1-b][1,3]thiazol-7-yl]acetamide]	100 to 499 nM
NCc1cccc(CC(=O)Nc2ncn3c(C(F)(F)F)csc23)c1 [Example 75, 2-[3-(aminomethyl)phenyl]-N-[3-(trifluoromethyl)imidazo[5,1-b][1,3]thiazol-7-yl]acetamide]	100 to 499 nM
O=C(Cc1cn2ccccc2n1)Nc1ncn2c(C(F)(F)F)csc12 [Example 29, 2-imidazo[1,2-a]pyridin-2-yl-N-[3-(trifluoromethyl)imidazo[5,1-b][1,3]thiazol-7-yl]acetamide]	100 to 499 nM
O=C(Cc1ccnnc1)Nc1ncn2c(C(F)(F)F)csc12 [Example 72, 2-pyridazin-4-yl-N-[3-(trifluoromethyl)imidazo[5,1-b][1,3]thiazol-7-yl]acetamide]	100 to 499 nM
Cc1cnc(-c2ccc(CC(=O)Nc3ncn4c(C(F)(F)F)csc34)cc2)cn1 [Example 51, 2-[4-(5-methylpyrazin-2-yl)phenyl]-N-[3-(trifluoromethyl)imidazo[5,1-b][1,3]thiazol-7-yl]acetamide]	100 to 499 nM
N[C@H]1CC[C@H](CC(=O)Nc2ncn3c(C(F)(F)F)csc23)CC1 [Example 25, 2-(trans-4-amino-cyclohexyl)-N-[3-(trifluoromethyl)imidazo[5,1-b][1,3]thiazol-7-yl]acetamide]	100 to 499 nM

same assay, conditions: '<50 nM'; 5 uM ATP, 0.3 nM CDK5-p25; read-out: IC50 potency, CDK5-p25 kinase enzymatic assay, <50 nM

SMILES	IC50
O=C(Cc1ccc2[nH]ncc2c1)Nc1ncn2c(C(F)(F)F)csc12 [Example 37, 2-(1H-indazol-5-yl)-N-[3-(trifluoromethyl)imidazo[5,1-b][1,3]thiazol-7-yl]acetamide]	< 50 nM
O=C(Nc1ncn2c(C(F)(F)F)csc12)C(F)c1ccc2ccccc2c1 (stereo not shown) [Example 33, 2-fluoro-2-(2-naphthyl)-N-[3-(trifluoromethyl)imidazo[5,1-b][1,3]thiazol-7-yl]acetamide]	< 50 nM
COc1cccc2cc(CC(=O)Nc3ncn4c(C(F)(F)F)csc34)ccc12 [Example 14, 2-(5-methoxy-2-naphthyl)-N-[3-(trifluoromethyl)imidazo[5,1-b][1,3]thiazol-7-yl]acetamide]	< 50 nM
O=C(Cc1ccc(-c2nn[nH]n2)cc1)Nc1ncn2c(C(F)(F)F)csc12 [Example 81, 2-[4-(2H-tetrazol-5-yl)phenyl]-N-[3-(trifluoromethyl)imidazo[5,1-b][1,3]thiazol-7-yl]acetamide]	< 50 nM
COc1ccc2ccc(CC(=O)Nc3ncn4c(C(F)(F)F)csc34)cc2c1 [Example 9, 2-(7-methoxy-2-naphthyl)-N-[3-(trifluoromethyl)imidazo[5,1-b][1,3]thiazol-7-yl]acetamide]	< 50 nM
O=C(Cc1cccc(-c2nn[nH]n2)c1)Nc1ncn2c(C(F)(F)F)csc12 [Example 80, 2-[3-(2H-tetrazol-5-yl)phenyl]-N-[3-(trifluoromethyl)imidazo[5,1-b][1,3]thiazol-7-yl]acetamide]	< 50 nM
O=C(Cc1cccc(-c2cn[nH]c2)c1)Nc1ncn2c(C(F)(F)F)csc12 [Example 24, 2-[3-(1H-pyrazol-4-yl)phenyl]-N-[3-(trifluoromethyl)imidazo[5,1-b][1,3]thiazol-7-yl]acetamide]	< 50 nM
O=C(Cc1ccc(-c2ccsc2)cc1)Nc1ncn2c(C(F)(F)F)csc12 [Example 53, 2-[4-(3-thienyl)phenyl]-N-[3-(trifluoromethyl)imidazo[5,1-b][1,3]thiazol-7-yl]acetamide]	< 50 nM
O=C(Cc1ccc(-c2cccnc2)cc1)Nc1ncn2c(C(F)(F)F)csc12 [Example 11, 2-(4-pyridin-3-ylphenyl)-N-[3-(trifluoromethyl)imidazo[5,1-b][1,3]thiazol-7-yl]acetamide]	< 50 nM
O=C(Cc1ccc2cnccc2c1)Nc1ncn2c(C(F)(F)F)csc12 [Example 5, 2-isoquinolin-6-yl-N-[3-(trifluoromethyl)imidazo[5,1-b][1,3]thiazol-7-yl]acetamide]	< 50 nM
O=C(Cc1cccc2ccccc12)Nc1ncn2c(C(F)(F)F)csc12 [Example 66, 2-(1-naphthyl)-N-[3-(trifluoromethyl)imidazo[5,1-b][1,3]thiazol-7-yl]acetamide]	< 50 nM
Cc1nc2cc(CC(=O)Nc3ncn4c(C(F)(F)F)csc34)ccc2o1 [Example 69, 2-(2-methyl-1,3-benzoxazol-5-yl)-N-[3-(trifluoromethyl)imidazo[5,1-b][1,3]thiazol-7-yl]acetamide]	< 50 nM
O=C(Cc1cccc(-c2cccnc2)c1)Nc1ncn2c(C(F)(F)F)csc12 [Example 52, 2-(3-pyridin-3-ylphenyl)-N-[3-(trifluoromethyl)imidazo[5,1-b][1,3]thiazol-7-yl]acetamide]	< 50 nM
